Test results reported in the supplement of paper PMC10307832.

Assays:
Assay in all cases: relative viability (nuclei count vs DMSO), 5 days (fraction); higher = more cells survive
[1] = compound: COc1cc2ncn(-c3cc(OCc4ccccc4C(F)(F)F)c(C(N)=O)s3)c2cc1OC + CCNC(=O)c1noc(-c2cc(C(C)C)c(O)cc2O)c1-c1ccc(CN2CCOCC2)cc1 [Luminespib] (partner 0.01 µM)
In short: (§1)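 For relative viability, nuclei counts in treated wells were divided by those in vehicle wells. Lung cancer cell lines had been pin-tool dosed in 1536-well plates the day after seeding and cultured for 5 days, then fixed and stained in one step (final 0.05% Triton X-100, 1% formaldehyde, 1 ug/ml Hoechst) and imaged at 4×. Doses were one drug alone or a fixed anchor-drug dose plus five library-drug doses (not always all listed) in √10 steps, and values are duplicate-plate medians.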

[2] = compound: COc1cc2ncn(-c3cc(OCc4ccccc4C(F)(F)F)c(C(N)=O)s3)c2cc1OC + COc1cc2c(Oc3ccc(NC(=O)C4(C(=O)Nc5ccc(F)cc5)CC4)cc3F)ccnc2cc1OCCCN1CCOCC1 [Foretinib] (partner 0.25 µM)
In short: as §1

[3] = compound: COc1cc2ncn(-c3cc(OCc4ccccc4C(F)(F)F)c(C(N)=O)s3)c2cc1OC + Cc1nc(Nc2ncc(C(=O)Nc3c(C)cccc3Cl)s2)cc(N2CCN(CCO)CC2)n1 [Dasatinib] (partner 0.075 µM)
In short: as §1

[4] = compound: COc1cc2ncn(-c3cc(OCc4ccccc4C(F)(F)F)c(C(N)=O)s3)c2cc1OC + Nc1ncn([C@H]2C[C@H](O)[C@@H](CO)O2)c(=O)n1 [Decitabine] (partner 2 µM)
In short: as §1

Cell Line | relative viability ([1]; first compound 0.05 µM) | relative viability ([1]; first compound 0.1581 µM) | relative viability ([1]; first compound 0.5 µM) | relative viability ([1]; first compound 1.581 µM) | relative viability ([1]; first compound 5 µM) | relative viability ([2]; first compound 0.05 µM) | relative viability ([2]; first compound 0.1581 µM) | relative viability ([2]; first compound 0.5 µM) | relative viability ([2]; first compound 1.581 µM) | relative viability ([2]; first compound 5 µM) | relative viability ([3]; first compound 0.05 µM) | relative viability ([3]; first compound 0.1581 µM) | relative viability ([3]; first compound 0.5 µM) | relative viability ([3]; first compound 1.581 µM) | relative viability ([3]; first compound 5 µM) | relative viability ([4]; first compound 0.05 µM) | relative viability ([4]; first compound 0.1581 µM) | relative viability ([4]; first compound 0.5 µM) | relative viability ([4]; first compound 1.581 µM) | relative viability ([4]; first compound 5 µM)
201T | 1.07 | 1.08 | 1 | 0.689 | 0.28 | 1.06 | 1.09 | 1.07 | 0.414 | 0.165 | 0.543 | 0.536 | 0.546 | 0.45 | 0.244 | 0.866 | 0.877 | 0.851 | 0.562 | 0.251
A549 | – | – | – | – | – | 0.979 | 1.03 | 0.423 | 0.0316 | 0.0318 | – | – | – | – | – | 0.253 | 0.237 | 0.212 | 0.0645 | 0.0614
A-427 | 0.998 | 0.973 | 0.617 | 0.246 | 0.114 | 1.13 | 0.923 | 0.81 | 0.398 | 0.137 | 0.839 | 0.501 | 0.602 | 0.175 | 0.088 | 0.619 | 0.6 | 0.498 | 0.399 | 0.205
ABC-1 | 0.709 | 0.679 | 0.255 | 0.311 | 0.263 | 1.2 | 1.08 | 0.758 | 0.225 | 0.239 | 0.539 | 0.542 | 0.469 | 0.276 | 0.239 | 1.21 | 1.18 | 0.761 | 0.513 | 0.357
BEN | 0.398 | 0.522 | 0.227 | 0.21 | 0.214 | 0.559 | 0.557 | 0.623 | 0.271 | 0.307 | 0.363 | 0.327 | 0.29 | 0.186 | 0.229 | 0.816 | 0.828 | 0.526 | 0.403 | 0.408
CAL-12T | 0.858 | 0.44 | 0.446 | 0.217 | 0.102 | 0.981 | 0.974 | 0.907 | 0.193 | 0.216 | 0.415 | 0.249 | 0.0865 | 0.105 | 0.122 | – | – | – | – | –
COR-L23 | 0.363 | 0.604 | 0.249 | 0.104 | 0.0965 | 0.94 | 1.04 | 0.663 | 0.158 | 0.118 | 0.434 | 0.364 | 0.203 | 0.102 | 0.0618 | 0.435 | 0.394 | 0.305 | 0.145 | 0.159
COR-L 105 | 0.828 | 0.846 | 0.616 | 0.312 | 0.245 | 1.2 | 1.2 | 1.17 | 0.391 | 0.302 | 0.337 | 0.33 | 0.273 | 0.22 | 0.19 | 0.65 | 0.601 | 0.572 | 0.438 | 0.278
Calu-6 | – | – | – | – | – | 0.791 | 0.612 | 0.203 | 0.0691 | 0.0725 | – | – | – | – | – | – | – | – | – | –
ChaGo-K-1 | 0.617 | 0.516 | 0.285 | 0.18 | 0.14 | 0.915 | 0.89 | 0.71 | 0.266 | 0.172 | 0.629 | 0.332 | 0.574 | 0.17 | 0.138 | 0.567 | 0.504 | 0.43 | 0.255 | 0.162
EBC-1 | – | – | – | – | – | 0.0982 | 0.102 | 0.0761 | 0.0874 | 0.0751 | – | – | – | – | – | – | – | – | – | –
EKVX | 1 | 1.01 | 0.64 | – | 0.578 | 0.779 | 0.516 | 0.603 | – | 0.46 | 0.661 | 0.604 | 0.425 | 0.271 | 0.224 | 0.324 | 0.381 | 0.273 | 0.175 | 0.204
EMC-BAC-2 | 1.19 | 1.22 | 0.931 | 0.569 | 0.219 | 1.11 | 1.01 | 0.815 | 0.309 | 0.212 | 0.328 | 0.361 | 0.296 | 0.168 | 0.139 | 1.12 | 1.05 | 0.963 | 0.504 | 0.253
EPLC-272H | – | 0.31 | 0.115 | 0.111 | 0.153 | – | 0.338 | 0.102 | 0.102 | 0.104 | – | 0.408 | 0.142 | 0.0755 | 0.103 | 0.356 | 0.362 | 0.168 | 0.113 | 0.133
H3255 | 0.861 | 0.924 | 0.757 | – | 0.518 | 0.876 | 1.06 | 0.714 | – | 0.542 | 0.346 | 0.349 | 0.344 | – | 0.279 | 0.518 | 0.674 | 0.625 | 0.312 | 0.294
HARA | 0.951 | 0.654 | 0.238 | 0.0482 | 0.0507 | 1.03 | 0.886 | 0.734 | 0.11 | 0.0673 | 0.242 | 0.299 | 0.284 | 0.0989 | 0.0669 | 0.383 | – | 0.367 | 0.202 | 0.118
HCC-15 | 0.312 | 0.291 | 0.149 | 0.101 | 0.0855 | 0.98 | 0.919 | 0.334 | 0.16 | 0.124 | 0.582 | 0.548 | 0.242 | 0.105 | 0.0655 | 0.592 | 0.581 | 0.248 | 0.176 | 0.119
HCC-44 | 0.854 | 1.13 | 0.613 | 0.168 | 0.132 | – | – | – | – | – | – | – | – | – | – | 0.987 | 0.984 | 0.906 | 0.433 | 0.258
HCC-78 | – | – | – | – | – | 0.574 | 0.585 | 0.469 | 0.327 | 0.379 | 0.463 | 0.537 | 0.306 | 0.317 | 0.206 | 0.688 | 0.652 | 0.671 | 0.473 | 0.446
HCC-366 | – | – | – | – | – | 0.962 | 0.938 | 0.282 | 0.0269 | 0.0243 | 0.675 | 0.67 | 0.338 | 0.0209 | 0.0192 | 0.255 | 0.372 | 0.326 | 0.0359 | 0.0203
